Experimental data taken from publication PMC8217170, “Phase Ib dose-escalation study of the hypoxia-modifier Myo-inositol trispyrophosphate in patients with hepatopancreatobiliary tumors” (Nature Communications, 2021).

Experiment: Plasma levels and pharmacokinetics of intravenous ITPP

In the case of O=P1(O)OC2C3OP(=O)(O)OP(=O)(O)OC3C3OP(=O)(O)OP(=O)(O)OC3C2OP(=O)(O)O1 (centres unmarked) [ITPP, Myo-inositol trispyrophosphate], the Tmax (cohort 1, 1866 mg/m2) is reported as 6.0 h, the VSS (cohort 1, 1866 mg/m2) is reported as 11.0 L and the “ITPP plasma levels: Concentration” value (cohort 1, patient 2, day 1, hour 0, sample 1_1_1) is reported as 0 µg/mL. The “ITPP plasma levels: Concentration” value (cohort 1, patient 2, day 1, hour 3, sample 1_1_2) was 71.4 µg/mL, the “ITPP plasma levels: Concentration” value (cohort 1, patient 2, day 1, hour 6, sample 1_1_3) was 64.4 µg/mL and the “ITPP plasma levels: Concentration” value (cohort 1, patient 2, day 1, hour 8.5, sample 1_1_4) was 37.7 µg/mL. The “ITPP plasma levels: Concentration” value (cohort 1, patient 2, day 1, hour 9, sample 1_1_5) was 27.2 µg/mL, the “ITPP plasma levels: Concentration” value (cohort 1, patient 2, day 2, hour 0, sample 1_2_1) was 0 µg/mL and the “ITPP plasma levels: Concentration” value (cohort 1, patient 2, day 2, hour 9, sample 1_2_5) was 31.6 µg/mL. For the same molecule, the “ITPP plasma levels: Concentration” value (cohort 1, patient 2, day 3, hour 0, sample 1_3_1) was 0 µg/mL, the “ITPP plasma levels: Concentration” value (cohort 1, patient 2, day 3, hour 9, sample 1_3_5) was 28.7 µg/mL and the “ITPP plasma levels: Concentration” value (cohort 1, patient 4, day 2, hour 9, sample 5_2_5) was 32.7 µg/mL. The “ITPP plasma levels: Concentration” value (cohort 1, patient 4, day 3, hour 0, sample 5_3_1) was 0 µg/mL, the “ITPP plasma levels: Concentration” value (cohort 1, patient 4, day 3, hour 9, sample 5_3_5) was 30.4 µg/mL and the “ITPP plasma levels: Concentration” value (cohort 1, patient 4, day 4, hour 0, sample 5_4_1) was 0 µg/mL. For the same molecule, the “ITPP plasma levels: Concentration” value (cohort 1, patient 4, day 4, hour 9, sample 5_4_5) was 28.7 µg/mL, the “ITPP plasma levels: Concentration” value (cohort 1, patient 4, day 5, hour 0, sample 5_5_1) was 0 µg/mL and the “ITPP plasma levels: Concentration” value (cohort 1, patient 4, day 5, hour 3, sample 5_5_2) was 33.3 µg/mL. For the same molecule, the “ITPP plasma levels: Concentration” value (cohort 1, patient 4, day 5, hour 6, sample 5_5_3) was 38.4 µg/mL, the “ITPP plasma levels: Concentration” value (cohort 1, patient 4, day 5, hour 8.5, sample 5_5_4) was 40.9 µg/mL and the “ITPP plasma levels: Concentration” value (cohort 1, patient 4, day 5, hour 9, sample 5_5_5) was 29.6 µg/mL. For the same molecule, the “ITPP plasma levels: Concentration” value (cohort 1, patient 4, day 5, hour 10, sample 5_5_6) was 22 µg/mL, the “ITPP plasma levels: Concentration” value (cohort 1, patient 4, day 6, hour 0, sample 5_6_1) was 0 µg/mL and the “ITPP plasma levels: Concentration” value (cohort 1, patient 4, day 6, hour 9, sample 5_6_5) was 32.4 µg/mL. For the same molecule, the “ITPP plasma levels: Concentration” value (cohort 1, patient 4, day 7, hour 0, sample 5_7_1) was 0 µg/mL, the “ITPP plasma levels: Concentration” value (cohort 1, patient 4, day 7, hour 9, sample 5_7_5) was 36.7 µg/mL and the “ITPP plasma levels: Concentration” value (cohort 1, patient 4, day 8, hour 0, sample 5_8_1) was 0 µg/mL. For the same molecule, the “ITPP plasma levels: Concentration” value (cohort 1, patient 4, day 8, hour 9, sample 5_8_5) was 31.5 µg/mL, the “ITPP plasma levels: Concentration” value (cohort 1, patient 4, day 9, hour 0, sample 5_9_1) was 0 µg/mL and the “ITPP plasma levels: Concentration” value (cohort 1, patient 4, day 9, hour 3, sample 5_9_2) was 38.7 µg/mL. The “ITPP plasma levels: Concentration” value (cohort 1, patient 4, day 9, hour 6, sample 5_9_3) was 43.5 µg/mL, the “ITPP plasma levels: Concentration” value (cohort 1, patient 4, day 9, hour 8.5, sample 5_9_4) was 42.1 µg/mL and the “ITPP plasma levels: Concentration” value (cohort 1, patient 4, day 9, hour 9, sample 5_9_5) was 26.1 µg/mL. It also gave an AUC (cohort 2, 3732 mg/m2) of 847.4 µg·h/mL, an AUMC (cohort 2, 3732 mg/m2) of 4925.6 h2*mg/L and a CL (cohort 2, 3732 mg/m2) of 3.8 L/h. For the same molecule, the Clast (cohort 2, 3732 mg/m2) was 55.8 µg/mL, the Cmax (cohort 2, 3732 mg/m2) was 120.6 µg/mL and the Cmin (cohort 2, 3732 mg/m2) was 0 ng/mL. For the same molecule, the “Elimination rate λz” value (cohort 2, 3732 mg/m2) was 0.4 h⁻¹, the “Half life/T0.5” value (cohort 2, 3732 mg/m2) was 1.8 h and the MRT (cohort 2, 3732 mg/m2) was 1.8 h. The Tlast (cohort 2, 3732 mg/m2) was 10.0 h, the Tmax (cohort 2, 3732 mg/m2) was 6.0 h and the VSS (cohort 2, 3732 mg/m2) was 10.5 L. For the same molecule, the “ITPP plasma levels: Concentration” value (cohort 2, patient 5, day 1, hour 0, sample 6_1_1) was 0 µg/mL, the “ITPP plasma levels: Concentration” value (cohort 2, patient 5, day 1, hour 3, sample 6_1_2) was 81 µg/mL and the “ITPP plasma levels: Concentration” value (cohort 2, patient 5, day 1, hour 6, sample 6_1_3) was 102 µg/mL. The “ITPP plasma levels: Concentration” value (cohort 2, patient 5, day 1, hour 8.5, sample 6_1_4) was 86.1 µg/mL, the “ITPP plasma levels: Concentration” value (cohort 2, patient 5, day 1, hour 9, sample 6_1_5) was 66.5 µg/mL and the “ITPP plasma levels: Concentration” value (cohort 2, patient 5, day 1, hour 10, sample 6_1_6) was 42.7 µg/mL. The “ITPP plasma levels: Concentration” value (cohort 2, patient 5, day 2, hour 0, sample 6_2_1) was 0 µg/mL, the “ITPP plasma levels: Concentration” value (cohort 2, patient 5, day 2, hour 9, sample 6_2_5) was 78.6 µg/mL and the “ITPP plasma levels: Concentration” value (cohort 2, patient 5, day 3, hour 0, sample 6_3_1) was 0 µg/mL. The “ITPP plasma levels: Concentration” value (cohort 2, patient 5, day 3, hour 9, sample 6_3_5) was 61.7 µg/mL, the “ITPP plasma levels: Concentration” value (cohort 2, patient 5, day 4, hour 0, sample 6_4_1) was 0 µg/mL and the “ITPP plasma levels: Concentration” value (cohort 2, patient 5, day 4, hour 9, sample 6_4_5) was 81.8 µg/mL. For the same molecule, the “ITPP plasma levels: Concentration” value (cohort 2, patient 5, day 5, hour 0, sample 6_5_1) was 0 µg/mL, the “ITPP plasma levels: Concentration” value (cohort 2, patient 5, day 5, hour 3, sample 6_5_2) was 90.1 µg/mL and the “ITPP plasma levels: Concentration” value (cohort 2, patient 5, day 5, hour 6, sample 6_5_3) was 107 µg/mL. The “ITPP plasma levels: Concentration” value (cohort 2, patient 5, day 5, hour 8.5, sample 6_5_4) was 81.8 µg/mL, the “ITPP plasma levels: Concentration” value (cohort 2, patient 5, day 5, hour 9, sample 6_5_5) was 62.8 µg/mL and the “ITPP plasma levels: Concentration” value (cohort 2, patient 5, day 5, hour 10, sample 6_5_6) was 38.5 µg/mL. For the same molecule, the “ITPP plasma levels: Concentration” value (cohort 2, patient 5, day 6, hour 0, sample 6_6_1) was 0 µg/mL, the “ITPP plasma levels: Concentration” value (cohort 2, patient 5, day 6, hour 9, sample 6_6_5) was 76.4 µg/mL and the “ITPP plasma levels: Concentration” value (cohort 2, patient 5, day 7, hour 0, sample 6_7_1) was 0 µg/mL. The “ITPP plasma levels: Concentration” value (cohort 2, patient 5, day 7, hour 9, sample 6_7_5) was 65.9 µg/mL, the “ITPP plasma levels: Concentration” value (cohort 2, patient 5, day 8, hour 0, sample 6_8_1) was 0 µg/mL and the “ITPP plasma levels: Concentration” value (cohort 2, patient 5, day 8, hour 9, sample 6_8_5) was 73.8 µg/mL. The “ITPP plasma levels: Concentration” value (cohort 2, patient 5, day 9, hour 0, sample 6_9_1) was 0 µg/mL, the “ITPP plasma levels: Concentration” value (cohort 2, patient 5, day 9, hour 3, sample 6_9_2) was 81.2 µg/mL and the “ITPP plasma levels: Concentration” value (cohort 2, patient 5, day 9, hour 6, sample 6_9_3) was 110 µg/mL. The “ITPP plasma levels: Concentration” value (cohort 2, patient 5, day 9, hour 8.5, sample 6_9_4) was 89.6 µg/mL, the “ITPP plasma levels: Concentration” value (cohort 2, patient 5, day 9, hour 9, sample 6_9_5) was 58.7 µg/mL and the “ITPP plasma levels: Concentration” value (cohort 2, patient 6, day 1, hour 0, sample 7_1_1) was 0 µg/mL. For the same molecule, the “ITPP plasma levels: Concentration” value (cohort 2, patient 6, day 1, hour 3, sample 7_1_2) was 84.8 µg/mL, the “ITPP plasma levels: Concentration” value (cohort 2, patient 6, day 1, hour 6, sample 7_1_3) was 106 µg/mL and the “ITPP plasma levels: Concentration” value (cohort 2, patient 6, day 1, hour 8.5, sample 7_1_4) was 100 µg/mL. The “ITPP plasma levels: Concentration” value (cohort 2, patient 6, day 1, hour 9, sample 7_1_5) was 77.7 µg/mL, the “ITPP plasma levels: Concentration” value (cohort 2, patient 6, day 1, hour 10, sample 7_1_6) was 55.2 µg/mL and the “ITPP plasma levels: Concentration” value (cohort 2, patient 6, day 2, hour 0, sample 7_2_1) was 0 µg/mL. For the same molecule, the “ITPP plasma levels: Concentration” value (cohort 2, patient 6, day 2, hour 9, sample 7_2_5) was 66.6 µg/mL, the “ITPP plasma levels: Concentration” value (cohort 2, patient 6, day 3, hour 0, sample 7_3_1) was 0 µg/mL and the “ITPP plasma levels: Concentration” value (cohort 2, patient 6, day 3, hour 9, sample 7_3_5) was 65.2 µg/mL. For the same molecule, the “ITPP plasma levels: Concentration” value (cohort 2, patient 6, day 4, hour 0, sample 7_4_1) was 0 µg/mL, the “ITPP plasma levels: Concentration” value (cohort 2, patient 6, day 4, hour 9, sample 7_4_5) was 67.1 µg/mL and the “ITPP plasma levels: Concentration” value (cohort 2, patient 6, day 5, hour 0, sample 7_5_1) was 0 µg/mL. For the same molecule, the “ITPP plasma levels: Concentration” value (cohort 2, patient 6, day 5, hour 3, sample 7_5_2) was 78.6 µg/mL, the “ITPP plasma levels: Concentration” value (cohort 2, patient 6, day 5, hour 6, sample 7_5_3) was 98 µg/mL and the “ITPP plasma levels: Concentration” value (cohort 2, patient 6, day 5, hour 8.5, sample 7_5_4) was 82.7 µg/mL. For the same molecule, the “ITPP plasma levels: Concentration” value (cohort 2, patient 6, day 5, hour 9, sample 7_5_5) was 41.4 µg/mL, the “ITPP plasma levels: Concentration” value (cohort 2, patient 6, day 5, hour 10, sample 7_5_6) was 40.6 µg/mL and the “ITPP plasma levels: Concentration” value (cohort 2, patient 6, day 6, hour 0, sample 7_6_1) was 0 µg/mL. For the same molecule, the “ITPP plasma levels: Concentration” value (cohort 2, patient 6, day 6, hour 9, sample 7_6_5) was 60.1 µg/mL, the “ITPP plasma levels: Concentration” value (cohort 2, patient 6, day 7, hour 0, sample 7_7_1) was 0 µg/mL and the “ITPP plasma levels: Concentration” value (cohort 2, patient 6, day 7, hour 9, sample 7_7_5) was 72.5 µg/mL. For the same molecule, the “ITPP plasma levels: Concentration” value (cohort 2, patient 6, day 8, hour 0, sample 7_8_1) was 0 µg/mL, the “ITPP plasma levels: Concentration” value (cohort 2, patient 6, day 8, hour 9, sample 7_8_5) was 75.7 µg/mL and the “ITPP plasma levels: Concentration” value (cohort 2, patient 6, day 9, hour 0, sample 7_9_1) was 0 µg/mL. The “ITPP plasma levels: Concentration” value (cohort 2, patient 6, day 9, hour 3, sample 7_9_2) was 84.2 µg/mL, the “ITPP plasma levels: Concentration” value (cohort 2, patient 6, day 9, hour 6, sample 7_9_3) was 116 µg/mL and the “ITPP plasma levels: Concentration” value (cohort 2, patient 6, day 9, hour 8.5, sample 7_9_4) was 105 µg/mL. The “ITPP plasma levels: Concentration” value (cohort 2, patient 6, day 9, hour 9, sample 7_9_5) was 82 µg/mL, the “ITPP plasma levels: Concentration” value (cohort 2, patient 6, day 9, hour 10, sample 7_9_6) was 60.5 µg/mL and the “ITPP plasma levels: Concentration” value (cohort 2, patient 7, day 1, hour 0, sample 8_1_1) was 0 µg/mL. For the same molecule, the “ITPP plasma levels: Concentration” value (cohort 2, patient 7, day 1, hour 3, sample 8_1_2) was 81.8 µg/mL, the “ITPP plasma levels: Concentration” value (cohort 2, patient 7, day 1, hour 6, sample 8_1_3) was 117 µg/mL and the “ITPP plasma levels: Concentration” value (cohort 2, patient 7, day 1, hour 8.5, sample 8_1_4) was 100 µg/mL. For the same molecule, the “ITPP plasma levels: Concentration” value (cohort 2, patient 7, day 1, hour 9, sample 8_1_5) was 79.1 µg/mL and the “ITPP plasma levels: Concentration” value (cohort 2, patient 7, day 1, hour 10, sample 8_1_6) was 67.7 µg/mL.
